Data from patent US6635459B1, “Nucleotide sequences encoding pinoresinol/lariciresinol reductase proteins and their methods of use” (Washington State University Research Foundation, priority 1996, dated 2003).

How the values were obtained:
HW-1 = conditions: cited from earlier work
cAMP-phosphodiesterase = conditions: cited from earlier work
[1] = molecular target: T1, 35 kDa form of (+)-pinoresinol/(+)-lariciresinol reductase (Forsythia intermedia, UniProt P93143); assay: Initial velocity studies, reductase 35 kDa isoform; assay type: biochemical; conditions: 35 kDa form of the enzyme; NADPH 80 μM, pH 7.4, 30° C.
T1 construct: pure enzyme (after MonoQ anion-exchange chromatography); from tissue; host or cells: Forsythia intermedia stems
T1 sequence (P93143 2-312): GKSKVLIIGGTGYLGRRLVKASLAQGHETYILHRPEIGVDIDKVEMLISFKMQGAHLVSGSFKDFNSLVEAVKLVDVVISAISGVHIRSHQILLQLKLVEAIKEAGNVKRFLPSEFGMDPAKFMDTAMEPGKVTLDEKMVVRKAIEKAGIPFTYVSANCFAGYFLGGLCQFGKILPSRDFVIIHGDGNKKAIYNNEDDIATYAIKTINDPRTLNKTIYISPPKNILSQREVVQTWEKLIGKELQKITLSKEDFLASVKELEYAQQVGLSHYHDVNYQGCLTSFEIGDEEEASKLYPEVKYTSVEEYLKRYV
Experimental: (§1) Kinetic Parameters. […] The initial velocity studies were carried out individually utilizing the two isoforms of the enzyme, and individually employing both (+)-pinoresinol and (+)-lariciresinol as substrates. Initial velocity studies were performed in triplicate experiments, using 50 mM Bis-Tris Propane buffer, pH 7.4 containing 5 mM dithiothreitol, pure enzyme (after MonoQ anion-exchange chromatography), ten different substrate concentrations (between 8.8 and 160 μM) at a constant NADPH concentration (80 μM). Incubations were carried out at 30° C. for 10 min (within the linear kinetic range). Kinetic parameters were determined from Lineweaver-Burk plots.

[2] = molecular target: 36 kDa form of (+)-pinoresinol/(+)-lariciresinol reductase (Forsythia x intermedia, UniProt P93143); assay: Initial velocity studies, reductase 36 kDa isoform; conditions: 36 kDa form of the enzyme; NADPH 80 μM, pH 7.4, 30° C.
Experimental: as §1

HIV = conditions: cited from earlier work
(±)-pinoresinols = assay: Substrate specificity of recombinant Thuja plicata reductases expressed in E. coli; assay type: biochemical; conditions: β-galactosidase fusion in E. coli total protein extract, 3 hour incubation at 30° C.

COc1cc(C[C@]2(O)C(=O)OC[C@H]2Cc2ccc(OC)c(OC)c2)ccc1O (single isomer, unassigned) [(+)-enantiomer]
inhibition of in vitro replication of HW-1 (HW-1): much less effective

COc1cc(C[C@H]2COC(=O)[C@@H]2Cc2ccc(O)c(OC)c2)ccc1O [matairesinol]
cAMP-phosphodiesterase inhibition (cAMP-phosphodiesterase): inhibit cAMP-phosphodiesterase

(+)-pinoresinol
Km [1]: 27 ± 1.5 µM
Vmax (apparent maximum velocity) [1]: 16.2±0.4 μmol h^−1 mg^−1 of protein
Km [2]: 23 ± 1.3 µM
Vmax (apparent maximum velocity) [2]: 17.3±0.5 μmol h^−1 mg^−1 of protein

(−)-trachelogenin
inhibition of in vitro replication of HW-1 (HW-1): inhibits
effectiveness against HIV (reverse transcriptase inhibitory activities) (HIV): effective against HIV

B1: plr-Tp2: Thuja plicata (+)-pinoresinol/(+)-lariciresinol reductase (SEQ ID NO:64) expressed in E. coli (protein)
chain: MEESSRVLIVGGTGYIGRRIVKASIALGHPTFILFRKEVVSDVEKVEMLLSFKKNGAKLLEASFDDHESLVDAVKQVDVVISAVAGNHMRHHILQQLKLVEAIKEAGNIKRFVPSEFGMDPGLMEHAMAPGNIVFIDKIKVREAIEAASIPHTYISANIFAGYLVGGLAQLGRVMPPSEKVILYGDGNVKAVWVDEDDVGIYTIKAIDDPHTLNKTMYIRPPLNILSQKEVVEKWEKLSGKSLNKINISVEDFLAGMEGQSYGEQIGISHFYQMFYRGDLYNFEIGPNGVEASQLYPEVKYTTVDSYMERYL
substrate specificity ((±)-pinoresinols): same substrate specificity and product formation as the original Forsythia intermedia reductase

B2: plr-Tp1: Thuja plicata (−)-pinoresinol/(−)-lariciresinol reductase (SEQ ID NO:62) expressed in E. coli (protein)
chain: MDKKSRVLIVGGTGYIGKRIVNASISLGHPTYVLFRPEVVSNIDKVQMLLYFKQLGAKLIEASLDDHQRLVDALKQVDVVISALAGGVLSHHILEQLKLVEAIKEAGNIKRFLPSEFGMDPDIMEHALQPGSITFIDKRKVRRAIEAASIPYTYVSSNMFAGYFAGSLAQLDGHMMPPRDKVLIYGDGNVKGIWVDEDDVGTYTIKSIDDPQTLNKTMYIRPPMNILSQKEVIQIWERLSEQNLDKIYISSQDFLADMKDKSYEEKIVRCHLYQIFFRGDLYNFEIGPNAIEATKLYPEVKYVTMDSYLERYV
substrate specificity ((±)-pinoresinols): can use both (−)-pinoresinol and (+)-pinoresinol as substrates
